Key:
Format in all cases: physicochemical
[1] = Cocrystal screening by mixing and grinding method (Comparative Example 5); design: key: A cocrystal was completely formed.; B: A mixture of a cocrystal and the host compound or guest compound was formed.; C: A cocrystal was not formed (a mixture of the host compound and the guest compound was formed); conditions: host carbamazepine, equimolar guest, mixed/ground in agate mortar
Text: (§1) Carbamazepine and a guest compound shown in Table 4 in an equimolar amount to carbamazepine were weighed and mixed using an agate mortar. At that time, particles having a large size to an extent that they could be distinguished through visual inspection were grinded on the agate mortar. The obtained solids were subjected to powder X-ray diffraction measurement and thermal analysis.

[2] = Cocrystal screening by heating method without menthol (Comparative Example 6); design: key: A cocrystal was completely formed.; B: A mixture of a cocrystal and the host compound or guest compound was formed.; C: A cocrystal was not formed (a mixture of the host compound and the guest compound was formed); conditions: host carbamazepine, equimolar guest, no menthol, 4 hours at 80° C.
Protocol: as §1, with “10 mg of this mixed powder was weighed and put into a test tube and heated for 4 hours in an oven at 80° C., and the” for “The”

[3] = Cocrystal screening by slurry method (Comparative Examples 1-1 to 1-6), powder X-ray diffraction; design: key to Cocrystal formation, Comparative Example 1* / Cocrystal formation, Comparative Example 1-1 / Cocrystal formation, Comparative Example 1-2 / Cocrystal formation, Comparative Example 1-3 / Cocrystal formation, Comparative Example 1-4 / Cocrystal formation, Comparative Example 1-5 / Cocrystal formation, Comparative Example 1-6: A cocrystal was completely formed.; B: A mixture of a cocrystal and the host compound or guest compound was formed.; C: A cocrystal was not formed (a mixture of the host compound and the guest compound was formed); conditions: host theophylline; for Cocrystal formation, Comparative Example 1-6: slurry in acetone; for Cocrystal formation, Comparative Example 1-6 / Cocrystal formation, Comparative Example 1-2 / Cocrystal formation, Comparative Example 1-5 / Cocrystal formation, Comparative Example 1-3 / Cocrystal formation, Comparative Example 1-4 / Cocrystal formation, Comparative Example 1-1: room temperature 7 days; for Cocrystal formation, Comparative Example 1-2: slurry in ethanol; for Cocrystal formation, Comparative Example 1-5: slurry in ethyl acetate; for Cocrystal formation, Comparative Example 1-3: slurry in tetrahydrofuran; for Cocrystal formation, Comparative Example 1-4: slurry in toluene; for Cocrystal formation, Comparative Example 1*: slurry summary: A if a cocrystal was formed in any one of Comparative Examples 1-1 to 1-6
Protocol: (§2) 3 mg (0.0167 mmoles) of theophylline and a guest compound shown in Table 1 in an equimolar amount (0.0167 mmoles) to theophylline were weighed and put into a glass container, to which was then added 60 μL of water. These were shaken at room temperature for 7 days, and the obtained residues were subjected to powder X-ray diffraction measurement. 3 mg (0.0167 mmoles) of theophylline and a guest compound shown in Table I in an equimolar amount (0.0167 mmoles) to theophylline were weighed and put into a glass container, to which was then added 60 μL of ethanol. These were shaken at room temperature for 7 days, and the obtained residues were subjected to powder X-ray diffraction measurement. 3 mg (0.0167 mmoles) of theophylline and a guest compound shown in Table 1 in an equimolar amount (0.0167 mmoles) to theophylline were weighed and put into a glass container, to which was then added 60 μL of tetrahydrofuran. This was shaken at room temperature for 7 days, and the obtained residues were subjected to powder X-ray diffraction measurement. 3 mg (0.0167 mmoles) of theophylline and a guest compound shown in Table 1 in an equimolar amount (0.0167 mmoles) to theophylline were weighed and put into a glass container, to which was then added 60 μL of toluene. These were shaken at room temperature for 7 days, and the obtained residues were subjected to powder X-ray diffraction measurement. 3 mg (0.0167 mmoles) of theophylline and a guest compound shown in Table 1 in an equimolar amount (0.0167 mmoles) to theophylline were weighed and put into a glass container, to which was then added 60 μL of ethyl acetate. These were shaken at room temperature for 7 days, and the obtained residues were subjected to powder X-ray diffraction measurement. 3 mg (0.0167 mmoles) of theophylline and a guest compound shown in Table 1 in an equimolar amount (0.0167 mmoles) to theophylline were weighed and put into a glass container, to which was then added 60 μL of acetone. These were shaken at room temperature for 7 days, and the obtained residues were subjected to powder X-ray diffraction measurement.

[4] = Cocrystal screening by heat melting 1-menthol (Example 1), powder X-ray diffraction and thermal analysis; design: key to Cocrystal formation, Example 1: A cocrystal was completely formed.; B: A mixture of a cocrystal and the host compound or guest compound was formed.; C: A cocrystal was not formed (a mixture of the host compound and the guest compound was formed); conditions: host theophylline; for Cocrystal formation, Example 1: equimolar guest, 1-menthol added, 4 hours at 80° C.
Protocol: Theophylline and a guest compound shown in Table 1 in an equimolar amount to theophylline were weighed and mixed using an agate mortar. […] Thereafter, the obtained mixed powder of theophylline, the guest compound, and 1-menthol was heated for 4 hours in an oven at 80° C., and the obtained solid was subjected to powder X-ray diffraction measurement and thermal analysis.

[5] = Cocrystal screening by slurry method (Comparative Examples 4-1 to 4-6), powder X-ray diffraction; design: key: A cocrystal was completely formed.; B: A mixture of a cocrystal and the host compound or guest compound was formed.; C: A cocrystal was not formed (a mixture of the host compound and the guest compound was formed); conditions: host carbamazepine; for Cocrystal formation, Comparative Example 4-6: slurry in acetone; for Cocrystal formation, Comparative Example 4-6 / Cocrystal formation, Comparative Example 4-2 / Cocrystal formation, Comparative Example 4-5 / Cocrystal formation, Comparative Example 4-4 / Cocrystal formation, Comparative Example 4-1 / Cocrystal formation, Comparative Example 4-3: room temperature 7 days; for Cocrystal formation, Comparative Example 4-2: slurry in ethanol; for Cocrystal formation, Comparative Example 4-5: slurry in ethyl acetate; for Cocrystal formation, Comparative Example 4-4: slurry in toluene; for Cocrystal formation, Comparative Example 4-1: slurry in water; for Cocrystal formation, Comparative Example 4*: slurry summary: A if a cocrystal was formed in any one of Comparative Examples 4-1 to 4-6; for Cocrystal formation, Comparative Example 4-3: slurry in tetrahydrofuran
Protocol: as §2, with “(0.0127” for “(0.0167”, “carbamazepine” for “theophylline”, “4” for “1”, “4” for “I”, “These were” for “This was”

Compound | Cocrystal formation, Comparative Example 5 [1] | Cocrystal formation, Comparative Example 6 [2] | Cocrystal formation, Comparative Example 1-6 [3] | Cocrystal formation, Comparative Example 1-2 [3] | Cocrystal formation, Comparative Example 1-5 [3] | Cocrystal formation, Comparative Example 1-3 [3] | Cocrystal formation, Comparative Example 1-4 [3] | Cocrystal with theophylline found, Comparative Example 1-1 ([3]; slurry in water) | Cocrystal formation, Comparative Example 1-1 ([3]; slurry in water) | Cocrystal formation, Comparative Example 1* [3] | Cocrystal with theophylline found, Example 1 ([4]; 1-menthol, 80° C.) | Cocrystal formation, Example 1 [4] | Cocrystal formation, Comparative Example 4-6 [5] | Cocrystal formation, Comparative Example 4-2 [5] | Cocrystal formation, Comparative Example 4-5 [5] | Cocrystal formation, Comparative Example 4-4 [5] | Cocrystal formation, Comparative Example 4-1 [5] | Cocrystal formation, Comparative Example 4* [5] | Cocrystal formation, Comparative Example 4-3 [5]
N=C(N)NCCC[C@H](N)C(=O)O [L(+)-Arginine] | C | C | C | C | C | C | C | could be found out | A | A | could not be found out | C | C | C | C | C | C | C | –
O=C(O)C(=O)O [Oxalic acid] | C | B | A | C | A | A | C | – | C | A | – | B | C | C | A | B | C | A | –
O=C1NS(=O)(=O)c2ccccc21 [Saccharin] | C | C | C | A | A | C | C | – | C | A | – | A | B | A | A | A | C | A | –
O=C(O)/C=C\C(=O)O [Maleic acid] | C | C | C | C | A | C | A | – | C | A | – | A | C | A | A | A | A | A | A
NCC(=O)O [Glycine] | C | C | C | C | C | C | C | – | C | C | – | C | C | C | C | C | C | C | –
O=C(O)c1ccccc1 [Benzoic acid] | C | B | C | C | C | C | C | – | C | C | – | A | C | C | C | C | C | C | –
NC(=O)c1cccnc1 [Nicotinamide] | C | B | A | B | A | B | A | – | C | A | – | A | B | A | A | A | C | A | A

From US20140045824A1, “METHOD FOR PRODUCING COMPLEX CRYSTAL AND METHOD FOR SCREENING COMPLEX CRYSTAL” (priority 2011, published 2014)
